Assay results as given in patent US20260098061A1, “EPHA2-BINDING PENDING PEPTIDE AND COMPOSITION COMPRISING SAME” (PeptiDream Inc., priority 2022, published 2026).
Numbered stars: 1 amine (or outer) side, 2 acyl side, 3 side chain; on linkers, the order of the positions; unused ones are H or OH. Bridge positions count the residues as written; N and C are the ends. Square brackets hold non-standard residues; d marks the D form. Side chains are listed from the residue outwards. Peptide text beside a SMILES is read from it. * marks the point of attachment. NH(1-deoxy-D-glucityl) = OC[C@@H](O)[C@@H](O)[C@H](O)[C@@H](O)CN*; Trp(1-Me,7-Cl) = Cn1cc(C[C@H](N)C(=O)O)c2cccc(Cl)c21; Ala(2-NH2-4-pyridyl) = Nc1cc(C[C@H](N)C(=O)O)ccn1; dPhe(3-CONH2) = NC(=O)c1cccc(C[C@@H](N)C(=O)O)c1; X3 = CN([C@@H](Cc1ccnc(N)c1)C(=O)[*:2])[*:1]; Piperazinyl(4-CH2COOH) = O=C(O)CN1CCN(*)CC1; Trp(1-Me) = Cn1cc(C[C@H](N)C(=O)O)c2ccccc21; NMe3Pal = CN[C@@H](Cc1cccnc1)C(=O)O; NMeF = CN[C@@H](Cc1ccccc1)C(=O)O; hCit = NC(=O)NCCCC[C@H](N)C(=O)O; Gly(cBu) = N[C@H](C(=O)O)C1CCC1; NMeE = CN[C@@H](CCC(=O)O)C(=O)O; Aad = N[C@@H](CCCC(=O)O)C(=O)O; Pen = CC(C)(S)[C@H](N)C(=O)O; CO = O=C([*:1])[*:2]; βAla = NCCC(=O)O

biological target: T1, Recombinant Human EphA2 Fc Protein (Homo sapiens, UniProt P29317); test: SPR interaction analysis (Biacore T200), kinetics of peptides against EphA2; format: binding; settings: Recombinant Human EphA2 Fc Protein captured by Human Antibody Capture kit; single-cycle kinetics; 25° C.; HBS-P+ buffer with 1% DMSO
T1 construct: purchased Elabscience
Experimental: Example 14 Interaction Analysis by SPR was Performed Using Biacore (Cytiva)
SPR assay was performed using Biacore T200 (Cytiva).
The HBS-P+ buffer (10 mM HEPES (pH7.4), 150 mM NaCl, 0.05% (v/V) Surfactant P20) containing 1% DMSO was used as running buffer. Recombinant Human EphA2 Fc Protein (Fc tag, Elabscience) was captured by Human Antibody Capture kit (Cytiva). Peptide samples in DMSO were diluted with running buffer, and prepared five serial dilutions. Using these serial dilutions, kinetics of peptides against EphA2 was measured at a flow rate of 30 mL/min at 25° C. The method adopted for sample measurement was a single-cycle kinetics method. The analysis was conducted using the evaluation software 3.0 provided with Biacore T200. Kinetics fitting was done on the difference data obtained by subtracting the baseline data from sample measurement data. KD values were calculated based on the association rate constant (ka) and dissociation rate constant (kd).

SMILES | Kd [nM]
CN1C(=O)[C@H](CCC(=O)NC[C@H](O)[C@@H](O)[C@H](O)[C@H](O)CO)NC(=O)[C@H](C2CCC2)NC(=O)[C@H](CC(N)=O)NC(=O)[C@H](Cc2cccnc2)N(C)C(=O)[C@@H](Cc2cccc(C(N)=O)c2)NC(=O)CSC[C@@H](C(N)=O)NC(=O)[C@H](Cc2cn(C)c3ccccc23)NC(=O)[C@H](CCC(=O)NC[C@H](O)[C@@H](O)[C@H](O)[C@H](O)CO)NC(=O)[C@H](Cc2cn(C)c3c(Cl)cccc23)NC(=O)[C@@H]1Cc1cccnc1 [PDC_EphA2-00026604, df3CON-Me3Py-N-Cbg-Qglucamine-Me3Py-W1Me7Cl-Qglucamine-W1Me-C-NH2] ({CH2CO}-[dPhe(3-CONH2)][NMe3Pal]N[Gly(cBu)]E(NH(1-deoxy-D-glucityl))[NMe3Pal][Trp(1-Me,7-Cl)]E(NH(1-deoxy-D-glucityl))[Trp(1-Me)]C-NH2; thioether N-10) | < 1
C[C@@H](O)[C@@H]1NC(=O)[C@H](Cc2cn(C)c3ccccc23)NC(=O)[C@H](CCC(=O)NC[C@H](O)[C@@H](O)[C@H](O)[C@H](O)CO)NC(=O)[C@H](Cc2cn(C)c3c(Cl)cccc23)NC(=O)[C@H](Cc2cccnc2)N(C)C(=O)[C@H](CCCC(N)=O)NC(=O)[C@H](C2CCC2)NC(=O)[C@H](CC(N)=O)NC(=O)[C@H](Cc2ccccc2)N(C)C(=O)[C@@H](Cc2cccc(C(N)=O)c2)NC(=O)CSC[C@@H](C(N)=O)NC(=O)[C@H](CCCC(N)=O)NC1=O [PDC_EphA2-00019435, df3CON-MeF-N-Cbg-Hgn-Me3Py-W1Me7Cl-Qglucamine-W1Me-T-Hgn-C-NH2] ({CH2CO}-[dPhe(3-CONH2)][NMeF]N[Gly(cBu)][Aad](NH2)[NMe3Pal][Trp(1-Me,7-Cl)]E(NH(1-deoxy-D-glucityl))[Trp(1-Me)]T[Aad](NH2)C-NH2; thioether N-12) | < 1
CC(C)C[C@@H]1NC(=O)[C@H](CC(N)=O)NC(=O)[C@H](Cc2cccnc2)N(C)C(=O)[C@@H](C)NC(=O)CSC[C@@H](C(N)=O)NC(=O)[C@H](CCCC(N)=O)NC(=O)[C@H]([C@@H](C)O)NC(=O)[C@H](Cc2cn(C)c3ccccc23)NC(=O)[C@H](CCCCNC(=O)N2CCN(CC(=O)O)CC2)NC(=O)[C@H](Cc2cn(C)c3ccccc23)NC(=O)[C@H](CCC(=O)O)N(C)C(=O)[C@H](CC(=O)N(C)C)NC1=O [PDC_EphA2-00018532, da-Me3Py-N-L-Ndm-MeE-W1Me-KCOpipzaa-W1Me-T-Hgn-C-NH2] ({CH2CO}-[dA][NMe3Pal]NLD(NMe2)[NMeE][Trp(1-Me)]K([CO-Piperazinyl(4-CH2COOH)])[Trp(1-Me)]T[Aad](NH2)C-NH2; thioether N-12) | < 1
C[C@H]1NC(=O)CSC[C@@H](C(N)=O)NC(=O)[C@H](CCCC(N)=O)NC(=O)[C@H]([C@@H](C)O)NC(=O)[C@H](Cc2cn(C)c3ccccc23)NC(=O)[C@H](CCC(=O)NC[C@H](O)[C@@H](O)[C@H](O)[C@H](O)CO)NC(=O)[C@H](Cc2cn(C)c3ccccc23)NC(=O)[C@H](Cc2cccnc2)N(C)C(=O)[C@H](CCCC(N)=O)NC(=O)[C@H](C2CCC2)NC(=O)[C@H](CC(N)=O)NC(=O)[C@H](Cc2cccnc2)N(C)C1=O [PDC_EphA2-00013705, da-Me3Py-N-Cbg-Hgn-Me3Py-W1Me-Qglucamine-W1Me-T-Hgn-C-NH2] ({CH2CO}-[dA][NMe3Pal]N[Gly(cBu)][Aad](NH2)[NMe3Pal][Trp(1-Me)]E(NH(1-deoxy-D-glucityl))[Trp(1-Me)]T[Aad](NH2)C-NH2; thioether N-12) | < 1
C[C@H]1NC(=O)CSC[C@@H](C(N)=O)NC(=O)[C@H](CCCC(N)=O)NC(=O)[C@H]([C@@H](C)O)NC(=O)[C@H](Cc2cn(C)c3ccccc23)NC(=O)[C@H](CCCCNC(=O)N2CCN(CC(=O)O)CC2)NC(=O)[C@H](Cc2cn(C)c3ccccc23)NC(=O)[C@H](CC(N)=O)NC(=O)[C@H](CCCC(N)=O)NC(=O)[C@H](C2CCC2)NC(=O)[C@H](CC(N)=O)NC(=O)[C@H](Cc2cccnc2)N(C)C1=O [PDC_EphA2-00010000, da-Me3Py-N-Cbg-Hgn-N-W1Me-KCOpipzaa-W1Me-T-Hgn-C-NH2] ({CH2CO}-[dA][NMe3Pal]N[Gly(cBu)][Aad](NH2)N[Trp(1-Me)]K([CO-Piperazinyl(4-CH2COOH)])[Trp(1-Me)]T[Aad](NH2)C-NH2; thioether N-12) | < 1
C[C@@H](O)[C@@H]1NC(=O)[C@H](Cc2cn(C)c3ccccc23)NC(=O)[C@H](CCC(=O)NC[C@H](O)[C@@H](O)[C@H](O)[C@H](O)CO)NC(=O)[C@H](Cc2cn(C)c3c(Cl)cccc23)NC(=O)[C@H](Cc2ccccc2)N(C)C(=O)[C@H](CCCC(N)=O)NC(=O)[C@H](C2CCC2)NC(=O)[C@H](CC(N)=O)NC(=O)[C@H](Cc2ccccc2)N(C)C(=O)[C@@H](Cc2cccc(C(N)=O)c2)NC(=O)CSC[C@@H](C(N)=O)NC(=O)[C@H](CCCC(N)=O)NC1=O [PDC_EphA2-00019431, df3CON-MeF-N-Cbg-Hgn-MeF-W1Me7Cl-Qglucamine-W1Me-T-Hgn-C-NH2] ({CH2CO}-[dPhe(3-CONH2)][NMeF]N[Gly(cBu)][Aad](NH2)[NMeF][Trp(1-Me,7-Cl)]E(NH(1-deoxy-D-glucityl))[Trp(1-Me)]T[Aad](NH2)C-NH2; thioether N-12) | < 1
CN1C(=O)[C@H](CCCC(N)=O)NC(=O)[C@H](C2CCC2)NC(=O)[C@H](CC(N)=O)NC(=O)[C@H](Cc2cccnc2)N(C)C(=O)[C@@H](Cc2cccc(C(N)=O)c2)NC(=O)CSC(C)(C)[C@@H](C(N)=O)NC(=O)[C@H](Cc2cn(C)c3ccccc23)NC(=O)[C@H](CCCCNC(=O)N2CCN(CC(=O)O)CC2)NC(=O)[C@H](Cc2cn(C)c3c(Cl)cccc23)NC(=O)[C@@H]1CCC(=O)O [PDC_EphA2-00026609, df3CON-Me3Py-N-Cbg-Hgn-MeE-W1Me7Cl-KCOpipzaa-W1Me-CdMe-NH2] ({CH2CO}-[dPhe(3-CONH2)][NMe3Pal]N[Gly(cBu)][Aad](NH2)[NMeE][Trp(1-Me,7-Cl)]K([CO-Piperazinyl(4-CH2COOH)])[Trp(1-Me)][Pen]-NH2; thioether N-10) | 1 to 10

Now from value to molecule:

Kd [nM] | SMILES
1 to 10 | CN1C(=O)[C@H](CCC(=O)NC[C@H](O)[C@@H](O)[C@H](O)[C@H](O)CO)NC(=O)[C@H](C2CCC2)NC(=O)[C@H](CC(N)=O)NC(=O)[C@H](Cc2ccnc(N)c2)N(C)C(=O)[C@@H](Cc2cccc(C(N)=O)c2)NC(=O)CSC[C@@H](C(N)=O)NC(=O)[C@H](Cc2cn(C)c3ccccc23)NC(=O)[C@H](CCCCNC(=O)N2CCN(CC(=O)O)CC2)NC(=O)[C@H](Cc2cn(C)c3c(Cl)cccc23)NC(=O)[C@@H]1Cc1cccnc1 [PDC_EphA2-00026605, df3CON-Me4Py2NH2-N-Cbg-Qglucamine-Me3Py-W1Me7Cl-KCOpipzaa-W1Me-C-NH2] ({CH2CO}-[dPhe(3-CONH2)][X3]N[Gly(cBu)]E(NH(1-deoxy-D-glucityl))[NMe3Pal][Trp(1-Me,7-Cl)]K([CO-Piperazinyl(4-CH2COOH)])[Trp(1-Me)]C-NH2; thioether N-10)
< 1 | CNC(=O)C[C@@H]1NC(=O)[C@H]([C@@H](C)O)NC(=O)[C@H](Cc2cn(C)c3ccccc23)NC(=O)[C@H](CCCCNC(=O)N2CCN(CC(=O)O)CC2)NC(=O)[C@H](Cc2cn(C)c3ccccc23)NC(=O)[C@H](Cc2ccccc2)N(C)C(=O)[C@H](CCCC(=O)O)NC(=O)[C@H](CC(C)C)NC(=O)[C@H](CC(N)=O)NC(=O)[C@H](Cc2cccnc2)N(C)C(=O)[C@@H](C)NC(=O)CSC[C@@H](C(N)=O)NC1=O [PDC_EphA2-00018528, da-Me3Py-N-L-Hgl-MeF-W1Me-KCOpipzaa-W1Me-T-Nmm-C-NH2] ({CH2CO}-[dA][NMe3Pal]NL[Aad][NMeF][Trp(1-Me)]K([CO-Piperazinyl(4-CH2COOH)])[Trp(1-Me)]TD(NHMe)C-NH2; thioether N-12)
< 1 | CC(=O)NCCCC[C@@H](NC(=O)CCNC(=O)[C@@H]1CSCC(=O)N[C@H](C)C(=O)N(C)[C@@H](Cc2cccnc2)C(=O)N[C@@H](CC(N)=O)C(=O)N[C@@H](CC(C)C)C(=O)N[C@@H](CCCCNC(=O)N2CCN(CC(=O)O)CC2)C(=O)N(C)[C@@H](Cc2ccccc2)C(=O)N[C@@H](Cc2cn(C)c3ccccc23)C(=O)N[C@@H](CCCCNC(=O)N2CCN(CC(=O)O)CC2)C(=O)N[C@@H](Cc2cn(C)c3ccccc23)C(=O)N[C@@H]([C@@H](C)O)C(=O)N[C@@H](CCC(=O)O)C(=O)N1)C(N)=O [PDC_EphA2-00008088, da-Me3Py-N-L-KCOpipzaa-MeF-W1Me-KCOpipzaa-W1Me-T-E-C-bA-dkAc-NH2] ({CH2CO}-[dA][NMe3Pal]NLK([CO-Piperazinyl(4-CH2COOH)])[NMeF][Trp(1-Me)]K([CO-Piperazinyl(4-CH2COOH)])[Trp(1-Me)]TEC[βAla][dK](Ac)-NH2; thioether N-12)
100 to 400 | CC(C)C[C@@H]1NC(=O)[C@H](Cc2ccnc(N)c2)NC(=O)[C@H](Cc2ccccc2)NC(=O)CSC[C@@H](C(=O)NCC(N)=O)NC(=O)[C@H](Cc2cn(C)c3ccccc23)NC(=O)[C@H](Cc2ccccc2)N(C)C(=O)[C@H](Cc2cn(C)c3ccccc23)NC(=O)[C@H](CCCCNC(N)=O)NC1=O [PDC_EphA2-00022601, F-4Py2NH2-L-Hcit-W1Me-MeF-W1Me-C-G-NH2] ({CH2CO}-F[Ala(2-NH2-4-pyridyl)]L[hCit][Trp(1-Me)][NMeF][Trp(1-Me)]CG-NH2; thioether N-8)
